Results taken from EP4167996B1, “METAMIZOLE DERIVATIVES FOR THE PREVENTION AND TREATMENT OF PULMONARY HYPERTENSION” (Preißner, Robert, priority 2020, dated 2021).

Test system: isoliert-perfundierte Mauslungen
Test: Hypoxic pulmonary vasoconstriction in the isolated perfused mouse lung (IPL)
Parameters: species or system C57BU6J Mäuse
Details: control ΔPAP ca. 4 cmH2O, P<0,005
Method: Hypoxisch pulmonale Vasokonstriktion an der isoliert-perfundierten Mauslunqe (IPL)
Für die IPL wurden 10-12 Wochen alte C57BU6J Mäuse verwendet. Zu Beginn wurden die Mäuse anästhesiert (Ketamin 100mg/kg Körpergewicht (KG); Xylazin 20mg/kg KG) und mittels zervikaler Dislokation getötet. Im Anschluss wurde eine Tracheotomie durchgeführt und die Lunge in situ positiv mit normoxischem (20% O2; 5% CO2; 75% N2) Gas ventiliert (Tidalvolumen: 100 µl; Atemzüge pro Minute: Körpergewicht x 10). Anschließend wurde der Bauchraum eröffnet, das Diaphragma durchtrennt und Heparin (100 U) in den rechten Ventrikel injiziert. Nach der Eröffnung des Thorax mittels Sternotomie wurde sowohl die Pulmonalarterie als auch der linke Ventrikel kanüliert und die Lunge mit auf 37°C temperierter, gepufferter Salzlösung nach Hanks, angereichert mit Ca^2+, Mg^2+ und 10% FBS, perfundiert. Je nach Versuchsgruppe wurde das Perfusat zusätzlich mit einer Gewichts-entsprechenden Menge an Metamizol, 4-Aminoantipyrin oder 4-Methylamioantipyrin versetzt. Sobald sich der pulmonalarterielle Druck (PAP) stabilisiert hatte, wurden die Basalwerte aufgezeichnet und anschließend die Mauslunge mit hypoxischem Gas (1% O2; 5% CO2; 94% N2) ventiliert. Veränderungen des PAP wurden mithilfe eines Drucksensors P75 (Havartus apparatus) detektiert, und geben das Ausmaß der hypoxischen Vasokonstriktion der Lunge wieder.

## CNc1c(C)n(C)n(-c2ccccc2)c1=O [4-Methylaminoantipyrin]
50-200 mg/kg KG in perfusate, hypoxic gas (1% O2; 5% CO2; 94% N2), Fig. 2
  Reduktion des ΔPAP in Abhängigkeit der Konzentration: Dosis-abhängigen Reduktion des ΔPAP
Mus musculus, 200 mg/kg KG in perfusate, ventilation switched from normoxic to hypoxic gas (1% O2; 5% CO2; 94% N2), Fig. 1, read-out: Reduktion des ΔPAP nach Umschalten auf Hypoxie
  inhibition at 200 mg/kg: 70%
